The results in this text go back to ChEMBL document CHEMBL4196009, “Novel vitexin-inspired scaffold against leukemia” (Eur J Med Chem, 2018).

In one experiment the test system is BJ. The experiment in a line: Antiproliferative activity against human BJ cells after 72 hrs by CelTiter-Glo assay. The experiment is classed as cell-based.
Another experiment has as its system SEM cells. The experiment in a line: Antiproliferative activity against human SEM cells after 72 hrs by CelTiter-Glo assay. It is filed as functional, cell-based.
Another experiment relates to KOPN-8. The experiment in a line: Antiproliferative activity against human KOPN8 cells after 72 hrs by CelTiter-Glo assay. It is filed as functional, cell-based. Particulars: KOPN-8, 72 h.
For another experiment, the system named is HepG2. The experiment in a line: Antiproliferative activity against human HepG2 cells after 72 hrs by CelTiter-Glo assay. It is filed as functional, cell-based. The note with it: HepG2, 72 h.
The next experiment concerns SUP-B15. The experiment in a line: Antiproliferative activity against human SUP-B15 cells after 72 hrs by CelTiter-Glo assay. It is filed as functional, cell-based. Particulars: SUP-B15, 72 h.
In another experiment the test system is UoC-B1. The experiment in a line: Antiproliferative activity against human UOCB1 cells after 72 hrs by CelTiter-Glo assay. The experiment is classed as functional, cell-based. The note with it: UoC-B1, 72 h.

In the case of `C=CCNC(=O)n1c(-c2ccc(OC)cc2)cc(=O)c2c(OC)cc(OC)cc21`, the EC50 is 74 µM in the experiment on BJ; 12 µM in the experiment with SEM cells; 12 µM in the experiment with KOPN-8; greater than 20 µM in the experiment with HepG2; 16 µM with SUP-B15.
Regarding `COc1ccc(-c2cc(=O)c3c(OC)cc(OC)cc3n2S(=O)(=O)c2cc(Cl)cc(Cl)c2O)cc1`, the EC50 in the experiment with BJ, in the experiment on KOPN-8, in the experiment on HepG2 and in the experiment on SUP-B15 was greater than 37.9 µM in each case.
As to `Nc1ccc2nc(C(=O)O)cc(O)c2c1`, the EC50 in the experiment with BJ is 371 µM; with SEM cells, 29 µM; in the experiment with SUP-B15 it was 46 µM.
Consider `COc1cc(OC)c2c(=O)cc(C(=O)Nc3ccc(N4CCOCC4)cc3)[nH]c2c1`, for which the EC50 in the experiment with BJ, in the experiment with KOPN-8, in the experiment on HepG2 and in the experiment with SUP-B15 was greater than 36.8 µM in each case.
Regarding `COc1ccc(-c2cc(=O)c3c(OC)cc(OC)cc3n2S(=O)(=O)c2c(F)c(F)c(F)c(F)c2F)cc1`, the EC50 was greater than 34.5 µM in the experiment on BJ; 3.9 µM in the experiment with SEM cells; greater than 34.5 µM in the experiment on KOPN-8; greater than 34.5 µM in the experiment with HepG2; 4.1 µM in the experiment on SUP-B15.
With `COc1ccc(-c2[nH]c3cc(OC)cc(OC)c3c(=O)c2I)cc1`, the EC50 with BJ is greater than 86.2 µM; with KOPN-8, 49.4 µM; in the experiment on HepG2 it was greater than 86.2 µM; in the experiment on SUP-B15, greater than 86.2 µM.
Turning to `COc1ccc(-c2cc(=O)c3c(OC)cc(OC)cc3n2S(=O)(=O)c2ccc(Cl)cc2)cc1`, the EC50 in the experiment with BJ, with KOPN-8, with HepG2 and with SUP-B15 was greater than 34.5 µM in each case.
For the compound `COC(=O)c1cc(=O)c2cc(NC(=O)NCCc3cccs3)ccc2[nH]1`, the EC50 in the experiment on UoC-B1 was greater than 9.81 µM; with BJ, greater than 19.5 µM; with SEM cells it was greater than 9.81 µM; in the experiment with KOPN-8 it was greater than 9.81 µM; in the experiment on HepG2, greater than 9.81 µM; with SUP-B15, greater than 19.5 µM.
`COc1ccc(-c2cc(=O)c3c(OC)cc(OC)cc3n2S(=O)(=O)c2ccc(C)c([N+](=O)[O-])c2)cc1`: the EC50 in the experiment with BJ, in the experiment with KOPN-8, in the experiment with HepG2 and with SUP-B15 was greater than 51.7 µM each time.
`COC(=O)c1cc(=O)c2cc([N+](=O)[O-])ccc2[nH]1`: the EC50 with UoC-B1 is greater than 41.6 µM; with BJ, greater than 82.8 µM; with SEM cells it was greater than 41.6 µM; with KOPN-8, greater than 41.6 µM; in the experiment with HepG2, greater than 41.6 µM; in the experiment with SUP-B15 it was 76.5 µM.
`COc1cc(OC)c2c(=O)cc(C(=O)Nc3ccc(C4CCCCC4)cc3)[nH]c2c1`: the EC50 with BJ was 36.2 µM; with KOPN-8, 18.4 µM; with HepG2, greater than 43.1 µM; with SUP-B15, greater than 43.1 µM.
Regarding `COc1ccc(-c2cc(=O)c3c(OC)cc(OC)cc3n2S(=O)(=O)c2ccc(C)cc2)cc1`, the EC50 in the experiment on BJ, in the experiment with KOPN-8, in the experiment with HepG2 and with SUP-B15 was greater than 44.8 µM each time.
For `COc1ccc(-c2cc(=O)c3c(OC)cc(OC)cc3n2S(=O)(=O)c2ccc(OC)cc2)cc1`, the EC50 in the experiment with BJ, in the experiment on KOPN-8, with HepG2 and in the experiment with SUP-B15 was greater than 82.8 µM throughout.
On to `COc1ccc(-c2cc(=O)c3c(OC)cc(OC)cc3n2S(=O)(=O)c2cc(F)c(F)c(F)c2)cc1`, for which the EC50 with BJ, with KOPN-8, with HepG2 and in the experiment with SUP-B15 was greater than 65.5 µM throughout.
For the compound `COc1ccc(-c2cc(=O)c3c(OC)cc(OC)cc3n2S(=O)(=O)c2ccc(F)cc2)cc1`, the EC50 in the experiment with BJ, in the experiment on KOPN-8, with HepG2 and in the experiment on SUP-B15 was greater than 65.5 µM throughout.
As for `COc1ccc(-c2cc(=O)c3c(OC)cc(OC)cc3n2S(=O)(=O)c2ccc([N+](=O)[O-])cc2)cc1`, the 50% effective concentration (EC50) is greater than 29.3 µM with BJ, 17.3 µM in the experiment on KOPN-8, greater than 29.3 µM in the experiment with HepG2 and 17.1 µM with SUP-B15.
Turning to `COc1ccc(-c2cc(=O)c3c(OC)cc(OC)cc3n2S(=O)(=O)c2ccc(Br)s2)cc1`, the EC50 with BJ, with KOPN-8, with HepG2 and with SUP-B15 was greater than 48.3 µM each time.
As for `COc1ccc(-c2cc(=O)c3c(OC)cc(OC)cc3n2S(=O)(=O)c2ccc(C=O)cc2)cc1`, the EC50 in the experiment with BJ, in the experiment on KOPN-8, in the experiment with HepG2 and in the experiment with SUP-B15 was greater than 34.5 µM each time.
Take `COc1ccc(-c2cc(=O)c3c(OC)cc(OC)cc3n2S(=O)(=O)c2cccc([N+](=O)[O-])c2)cc1`: the EC50 in the experiment on BJ, in the experiment on KOPN-8, with HepG2 and in the experiment with SUP-B15 was greater than 39.7 µM each time.
On to `O=c1cc(-c2ccccc2)oc2cc(O)c(O)c(O)c12` [BAICALEIN], for which the EC50 with BJ was greater than 86.2 µM; in the experiment with KOPN-8 it was 16 µM; in the experiment with HepG2, 60 µM; in the experiment on SUP-B15 it was 103 µM.
In the case of `COc1cc(OC)c2c(=O)cc(C(=O)Nc3ccccc3S(C)(=O)=O)[nH]c2c1`, the EC50 in the experiment with BJ, with KOPN-8, with HepG2 and in the experiment with SUP-B15 was greater than 39.7 µM in each case.
In the case of `COc1ccc(-c2cc(=O)c3c(OC)cc(OC)cc3n2S(=O)(=O)c2cccc(Br)c2)cc1`, the EC50 in the experiment on BJ, with KOPN-8, in the experiment on HepG2 and in the experiment on SUP-B15 was greater than 58.6 µM each time.
For `COc1cc(OC)c2c(=O)cc(C(=O)Nc3cc(C(F)(F)F)ccc3Oc3ccccc3OC)[nH]c2c1`, the EC50 with BJ was greater than 53.4 µM; in the experiment with SEM cells, 10.8 µM; with KOPN-8, greater than 53.4 µM; in the experiment with HepG2, 10.7 µM; with SUP-B15 it was greater than 53.4 µM.
Regarding `COc1ccc(-c2c(Cl)c(=O)c3c(OC)cc(OC)cc3n2S(=O)(=O)c2ccc(OC)cc2)cc1`, the EC50 in the experiment with BJ worked out at 90 µM; in the experiment on KOPN-8 it was 19.1 µM; with SUP-B15 it was 17.9 µM.
With `COc1ccc(-c2cc(=O)c3c(OC)cc(OC)cc3n2S(=O)(=O)c2ccc(C#N)cc2)cc1`, the EC50 in the experiment with BJ is greater than 17.2 µM; in the experiment on SEM cells, 1.3 µM; in the experiment with KOPN-8, greater than 17.2 µM; in the experiment on HepG2, greater than 17.2 µM; with SUP-B15, 7.9 µM.
Turning to `COc1cc(OC)c2c(=O)cc(C(=O)Nc3ccc(S(=O)(=O)c4ccccc4)cc3)[nH]c2c1`, the EC50 in the experiment with BJ, in the experiment with KOPN-8, in the experiment with HepG2 and in the experiment with SUP-B15 was greater than 70.7 µM in each case.
For `COc1ccc(-c2cc(=O)c3c(OC)cc(OC)cc3n2C)cc1`, the EC50 with BJ is 68 µM; with SEM cells it was 26 µM; with KOPN-8, 30 µM; in the experiment on SUP-B15 it was 28 µM.
`COc1ccc(-c2cc(=O)c3c(OC)cc(OC)cc3n2S(=O)(=O)c2ccc(Br)cc2)cc1`: the EC50 in the experiment with BJ was greater than 86.2 µM; in the experiment with KOPN-8, greater than 86.2 µM; in the experiment with HepG2, 16.3 µM; in the experiment with SUP-B15, 63.8 µM.
As to `COc1ccc(-c2cc(=O)c3c(OC)cc(OC)cc3n2S(=O)(=O)c2c(C(C)C)cc(C(C)C)cc2C(C)C)cc1`, the EC50 in the experiment on BJ was greater than 341 µM; in the experiment with KOPN-8 it was greater than 341 µM; with HepG2, greater than 341 µM; in the experiment with SUP-B15, 43.3 µM.
For the compound `COc1ccc(-c2cc(=O)c3c(OC)cc(OC)cc3n2S(=O)(=O)Cc2ccccc2)cc1`, the EC50 in the experiment with BJ, in the experiment on KOPN-8, with HepG2 and with SUP-B15 was greater than 34.5 µM throughout.
